Data taken from the supplement of paper PMC5412046.
Counter-ions that a name gives are not always drawn.

Columns and labels:
[1] = test system: SB.mhdgc-1; experiment: viability at highest tested concentration (MAXR) relative to DMSO; higher = less cytotoxic; settings: SB.mhdgc-1 (hereditary c.1380delA CDH1 gastric cancer)
In short: (§1)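 Gastric cancer cells derived from hereditary or sporadic patients were treated for 48 h with compound at 11 threefold dilutions, with the top concentration recorded per compound. Viability was then read by CellTiter-Glo luminescence. Data are viability normalised to DMSO, at the highest concentration or as trapezoidal area under the curve.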

[2] = test system: SB.msgc-1; experiment: as above; settings: SB.msgc-1 (sporadic gastric cancer)
In short: as §1

[3] = test system: SB.mhdgc-1; experiment: area under the dose-response curve of % viability (trapezoidal, 11 doses) (% viability x log10 concentration); higher = less cytotoxic; settings: SB.mhdgc-1 (hereditary c.1380delA CDH1 gastric cancer)
In short: as §1

[4] = test system: SB.msgc-1; experiment: as above; settings: SB.msgc-1 (sporadic gastric cancer)
In short: as §1

Row | Compound | viability [1] | viability [2] | area under the dose-response curve [3] | area under the dose-response curve [4]
1 | CC(C)C[C@H](CC(=O)O)C(=O)N[C@@H](Cc1c[nH]c2ccccc12)C(=O)N[C@@H](C)c1ccccc1 [GM-1489] (top concentration 46.0829 µM) | 57.8% | 106% | 472 | 525
2 | CCC(C)SSc1ncc[nH]1 (centres undefined) [PX-12] (top concentration 46.0829 µM) | 5.12% | 4.17% | 449 | 486
3 | CCn1cc(-c2ccnc3[nH]c(-c4cccc(CN(C)C)c4)cc23)c(-c2ccc(NC(=O)N(C)C)cc2)n1 (top concentration 46.0829 µM) | 32.2% | 15.2% | 367 | 450
4 | Nc1cccc(-c2cc3c(Oc4cccc(O)c4)ncnc3[nH]2)c1 [TWS-119] (top concentration 46.0829 µM) | 48% | 32.8% | 456 | 522
5 | Cc1cnc(NC(=O)Nc2cc(Br)c(C)cc2OC[C@@H]2CNCCO2)cn1 [Rabusertib] (top concentration 46.0829 µM) | 2.99% | 35.8% | 428 | 407
6 | C[S+](=O)([O-])N(Cc1ccco1)CC(O)Cn1c2ccccc2c2ccccc21 (centres undefined) [KL001] (top concentration 46.0829 µM) | 68.1% | 51.2% | 490 | 460
7 | OC(=O)C/1=C/C(=O)NC(=O)N1 [Orotic acid] (top concentration 46.0829 µM) | 159% | 126% | 584 | 608
8 | C[C@H](CCC(=O)O)[C@H]1CCC2C3C[C@H](O)[C@@H]4C[C@H](O)CC[C@]4(C)C3CC[C@@]21C (some centres undefined) [Hyodeoxycholic acid (HDCA)] (top concentration 46.0829 µM) | 105% | 98.3% | 498 | 525
9 | CO[C@H]1C[C@H]2OC[C@@]2(OC(C)=O)[C@H]3[C@H](OC(=O)C4=CC=CC=C4)[C@]5(O)C[C@H](OC(=O)[C@H](O)[C@@H](NC(=O)OC(C)(C)C)C6=CC=CC=C6)/C(=C(/[C@@H](OC)C(=O)[C@]13C)C5(C)C)C [Cabazitaxel] (top concentration 46.0829 µM) | 33.5% | 35.7% | 204 | 163
10 | Cc1ccccc1C(OCCN(C)C)c1ccccc1 (centres undefined) [Orphenadrine hydrochloride] (top concentration 46.0829 µM) | 117% | 111% | 502 | 537
11 | COc1ccc(C(C)=O)c(O)c1 [Paeonol] (top concentration 46.0829 µM) | 57% | 105% | 545 | 566
12 | CCCCC(=O)O[C@]1(C(=O)CO)[C@H](C)C[C@H]2[C@@H]3CCC4=CC(=O)C=C[C@]4(C)[C@@]3(F)[C@@H](O)C[C@@]21C [Betamethasone valerate] (top concentration 46.0829 µM) | 110% | 102% | 478 | 543
13 | CO[C@H]1CCC(O[C@H]2C[C@H]([C@]3(C)CC[C@]4(C[C@H](O)[C@@H](C)[C@@H]([C@@H](C)/C=C(\C)C(=O)[C@H](C)C[C@H](C)C(=O)[O][Na])O4)O3)O[C@]3(O[C@@H]([C@H]4O[C@@](O)(CO)[C@H](C)C[C@@H]4C)C[C@@H]3C)[C@@H]2C)O[C@@H]1C (some centres undefined) [Nanchangmycin] (top concentration 46.0829 µM) | 2.69% | 1.92% | 303 | 289
14 | COc1ccc(OC)c(-c2nnc3ccc(-c4ccc(OC)c(O[C@@H]5CCOC5)c4)nn23)c1 (top concentration 46.0829 µM) | 4.95% | 3.03% | 524 | 481
15 | OC1=C(Cl)C=C(N\C2=C(\C(=O)NC2=O)C3=C(C=CC=C3)[N+]([O-])=O)C=C1 (top concentration 46.0829 µM) | 76.5% | 53.3% | 415 | 490
16 | CC(C)NCC(O)c1ccc(O)c(O)c1 (centres undefined) [Isoprenaline hydrochloride] (top concentration 46.0829 µM) | 53.5% | 9.29% | 510 | 537
17 | O=C(O)C1=NC(C(=O)O)CC(/C=C/N2c3cc(O)c(OC4OC(CO)C(O)C(O)C4O)cc3CC2C(=O)O)=C1 (centres undefined) [Betanin] (top concentration 46.0829 µM) | 133% | 78.6% | 628 | 331
18 | OCCNC1CCCc2c1[nH]c1ccc(-c3ccccc3)cc21 (centres undefined) [CASIN] (top concentration 46.0829 µM) | 0.554% | 28.3% | 481 | 500
19 | C=CC[C@@H]1/C=C(\C)C[C@H](C)C[C@H](OC)[C@H]2O[C@@](O)(C(=O)C(=O)N3CCCC[C@H]3C(=O)O[C@H](/C(C)=C/[C@@H]3CC[C@@H](O)[C@H](OC)C3)[C@H](C)[C@@H](O)CC1=O)[C@H](C)C[C@@H]2OC [FK-506] (top concentration 46.0829 µM) | 86.3% | 68.7% | 462 | 533
20 | CCC[S+](=O)([O-])Nc1ccc(F)c(C(=O)c2c[nH]c3ncc(-c4ccc(Cl)cc4)cc23)c1F [Vemurafenib] (top concentration 46.0829 µM) | 52.4% | 38% | 507 | 537
21 | Cn1c2ccccc2c2c3c(c4c5ccccc5n(CCC#N)c4c21)CNC3=O [G?-6976] (top concentration 46.0829 µM) | 7.79% | 17.6% | 341 | 405

Row | Compound | viability [1] | viability [2] | area under the dose-response curve [3] | area under the dose-response curve [4]
22 | OC(=O)\C1=C\N(C2=CC=C(F)C=C2)C3=C(C=C(F)C(=C3)N4CCNCC4)C1=O [Sarafloxacin hydrochloride] (top concentration 46.0829 µM) | 95.3% | 102% | 498 | 616
23 | OC[C@H](Cc1ccccc1)Nc1nc(Oc2ccc3c(c2)CCC3)nc2c1ncn2Cc1ccc(-c2ccccc2)cc1 [QS11] (top concentration 46.0829 µM) | 86.6% | 58.5% | 512 | 393
24 | CN[C@H](CC(C)C)C(=O)N[C@H]1C(=O)N[C@@H](CC(N)=O)C(=O)N[C@H]2C(=O)N[C@H]3C(=O)N[C@H](C(=O)N[C@H](C(=O)O)c4cc(O)cc(O)c4-c4cc3ccc4O)[C@H](O)c3ccc(c(Cl)c3)Oc3cc2cc(c3O[C@@H]2O[C@H](CO)[C@@H](O)[C@H](O)[C@H]2O[C@H]2C[C@](C)(N)[C@H](O)[C@H](C)O2)Oc2ccc(cc2Cl)[C@H]1O [Vancomycin hydrochloride] (top concentration 46.0829 µM) | 73.2% | 99.9% | 503 | 521
25 | CN[C@@H]1CN(C[C@H]1OC)C2=NC3=C(C=C2)C(=O)C(=C\N3C4=NC=CS4)/C(O)=O [Vosaroxin] (top concentration 23.0415 µM) | 23.6% | 46% | 445 | 471
26 | O=C(Nc1ncc(-c2cc(C(F)F)nn2-c2c(Cl)cccc2Cl)s1)C1CC1 [BMS-3] (top concentration 46.0829 µM) | 29.5% | 38.2% | 385 | 394
27 | CCCCCNC(=N)N/N=C/c1c[nH]c2ccc(OC)cc12 [Tegaserod maleate] (top concentration 46.0829 µM) | 20.9% | 35.6% | 438 | 442
28 | Nc1cccc2c1C(=O)N(C1CCC(=O)NC1=O)C2=O (centres undefined) [Pomalidomide] (top concentration 46.0829 µM) | 124% | 115% | 526 | 538
29 | COc1cc(Nc2c(C#N)cnc3cc(OCCCN4CCN(C)CC4)c(OC)cc23)c(Cl)cc1Cl [Bosutinib] (top concentration 46.0829 µM) | 15.6% | 36.6% | 494 | 441
30 | C=CC(=O)Nc1ccc2ncnc(Nc3ccc(OCc4cccc(F)c4)c(Cl)c3)c2c1 [AST-1306] (top concentration 46.0829 µM) | 1.47% | 10.9% | 314 | 183
31 | COC1=CC=C(C=C1)C2CC(=N/N2C3=CC=C(C=C3)[S+](N)([O-])=O)\C4=CC=CC=C4 (centres undefined) [ML 141] (top concentration 46.0829 µM) | 26.2% | 49.7% | 450 | 492
32 | Cc1ccc(C(=O)Nc2cccc(C(F)(F)F)c2)cc1-c1ccc2nc(NCCN3CCOCC3)ncc2c1 [AMG-47a] (top concentration 46.0829 µM) | 24.1% | 40% | 508 | 512
33 | CC(C)C[C@H](NC(=O)[C@H](CCc1ccccc1)NC(=O)CN1CCOCC1)C(=O)N[C@@H](Cc1ccccc1)C(=O)N[C@@H](CC(C)C)C(=O)[C@@]1(C)CO1 [Carfilzomib] (top concentration 46.0829 µM) | 3.86% | 2.2% | 149 | 157
34 | N#C/C(C(=O)c1ccc(Cl)cc1Cl)=C1/NC(=O)c2ccc(Cl)cc2N1 [Cilliobrevin D] (top concentration 46.0829 µM) | 81.9% | 66.9% | 474 | 496
35 | Oc1cc2c(cc1O)C1c3ccc(O)c(O)c3OCC1(O)C2 (centres undefined) [Hematoxylin] (top concentration 46.0829 µM) | 120% | 103% | 569 | 553
36 | C[C@H]1COC2=C3N1\C=C(C(O)=O)/C(=O)C3=CC(=C2N4CCN(C)CC4)F [Levofloxacin] (top concentration 46.0829 µM) | 129% | 105% | 528 | 530
37 | COC(=O)[C@@H]1CC2=CC(=O)CC[C@]2(C)[C@@]23O[C@@H]2C[C@@]2(C)[C@@H](CC[C@@]24CCC(=O)O4)[C@H]13 [Eplerenone] (top concentration 46.0829 µM) | 127% | 111% | 555 | 524
38 | Clc1ccccc1C(c1ccccc1)(c1ccccc1)n1cccn1 [TRAM-34] (top concentration 46.0829 µM) | 66.9% | 39.8% | 513 | 441
39 | CCc1cc(/C(C)=N/OCc2ccc(C3CCCCC3)c(C(F)(F)F)c2)ccc1CN1CC(C(=O)O)C1 [BAF-312] (top concentration 46.0829 µM) | 72.5% | 51.4% | 535 | 465
40 | CC(NCCc1ccc(O)cc1)C(O)c1ccc(O)cc1 (centres undefined) [Ritodrine hydrochloride] (top concentration 46.0829 µM) | 97.5% | 112% | 570 | 581
41 | CC(=O)N[C@@H]1[C@@H](NC(N)=N)\C=C(/O[C@H]1[C@H](O)[C@H](O)CO)C(O)=O [Zanamivir] (top concentration 46.0829 µM) | 145% | 124% | 614 | 573
